The text below walks through data of PMC2267855, “Site-directed mutagenesis of Arginine282 suggests how protons and peptides are co-transported by rabbit PepT1” (The International Journal of Biochemistry & Cell Biology, 2008).

In experiment [1] the target is T1, R282H-PepT1 (Oryctolagus cuniculus, UniProt P36836, R282H).
T1 construct: expressed in transfected cells; host or cells: Xenopus laevis oocytes injected with cRNA
T1 sequence (P36836 1-707 R282H): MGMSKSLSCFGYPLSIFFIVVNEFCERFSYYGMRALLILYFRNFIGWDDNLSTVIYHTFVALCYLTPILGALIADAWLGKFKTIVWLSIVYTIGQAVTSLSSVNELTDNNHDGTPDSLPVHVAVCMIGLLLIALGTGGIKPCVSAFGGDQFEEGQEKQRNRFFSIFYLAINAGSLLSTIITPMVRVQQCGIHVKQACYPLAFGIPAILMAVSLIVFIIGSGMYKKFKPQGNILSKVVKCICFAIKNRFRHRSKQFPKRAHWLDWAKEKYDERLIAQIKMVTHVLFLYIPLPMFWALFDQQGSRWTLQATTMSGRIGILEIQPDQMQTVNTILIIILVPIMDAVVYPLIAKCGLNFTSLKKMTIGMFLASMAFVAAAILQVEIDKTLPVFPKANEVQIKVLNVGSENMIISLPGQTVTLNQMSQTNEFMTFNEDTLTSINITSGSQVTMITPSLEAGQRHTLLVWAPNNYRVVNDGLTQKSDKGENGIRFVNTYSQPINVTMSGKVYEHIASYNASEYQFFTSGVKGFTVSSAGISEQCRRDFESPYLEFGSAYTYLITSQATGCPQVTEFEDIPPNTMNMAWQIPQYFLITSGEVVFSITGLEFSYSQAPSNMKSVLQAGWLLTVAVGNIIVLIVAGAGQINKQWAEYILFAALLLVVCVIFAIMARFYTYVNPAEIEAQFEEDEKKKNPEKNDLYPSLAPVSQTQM
In words: Inhibition of [3H]-D-Phe-L-Gln uptake into Xenopus oocytes expressing R282H-PepT1 (competition, Ki). The class given is cell-based, rabbit. Conditions: pHout 5.5, 0.4 μM [3H]-D-Phe-L-Gln. On the procedure: (§1) Zero-trans uptake of [^3H]-D-Phe-L-Gln (17.4 Ci/mmole, custom synthesised, Cambridge Research Biochemicals, Stockton-on-Tees, UK) was performed as previously described ([Meredith, 2004]). Briefly, 5 oocytes were incubated in 100 μl of uptake medium (95 mM NaCl, 2 mM KCl, 1 mM CaCl2, 0.42 mM MgCl2, 10 mM Tris/Hepes pH 7.4 or Tris/Mes pH 5.5) with tracer (0.4 μM) [^3H]-D-Phe-L-Gln. After incubation, the oocytes were washed sequentially five times in 1 ml of ice-cold 120 mM NaCl solution, lysed individually with 100 μl 2% (w/v) SDS and liquid scintillation counted. As a control non-injected oocytes were also incubated in uptake medium with [^3H]-D-Phe-L-Gln as above.
The affinity of wild-type and mutant PepT1 were assessed by competition studies with 0.4 μM [^3H]-D-Phe-L-Gln and Gly-L-Gln present in the uptake medium in concentrations from 0 to 2 mM using the protocol above, and the Ki calculated using the method of [Deves and Boyd (1989)].

Experiment [2] concerns the target T2, wild-type PepT1 (Oryctolagus cuniculus, UniProt P36836).
T2 construct: expressed in transfected cells; host or cells: Xenopus laevis oocytes injected with cRNA
T2 sequence (P36836 1-707): T1 sequence (P36836 1-707 R282H) with H282R
In words: Diethylpyrocarbonate inhibition of PepT1-mediated dipeptide uptake and protection by substrates. In kind it is cell-based, rabbit. The settings on record: 5 mM present during 1 mM DEPC incubation (15 min), uptake measured over 1 h. The method, then: as §1
Diethylpyrocarbonate (DEPC) inhibition of PepT1 was performed using a similar protocol to that of [Terada, Saito, and Inui (1998)]. Briefly, PepT1 oocytes were preincubated with 1 mM DEPC for 15 min at pHout 5.5 in the absence or presence of the PepT1 substrates Gly-L-Gln, N-Acetyl-Phe ([Meredith et al., 2000]), and L-Ala-Tyramine (custom synthesised) and the non-substrate Tyr (all 5 mM). The oocytes were then washed in uptake medium before uptake assays were performed as detailed above.

Residue numbers refer to the chain shown, from its start. Where a SMILES comes first, the peptide text is derived from it.

In turn, `NCC(=O)N[C@@H](CCC(N)=O)C(=O)O` [Gly-L-Gln] (H-Gly-Gln-OH) returned a Ki in experiment [1] of 300 ± 150 µM. The “protection of PepT1 from DEPC inhibition” value in experiment [2] was “largely prevented”.

Broadly, the Ki is a measure of affinity in units of concentration, obtained from inhibition or displacement. High values mean lower affinity, low ones higher affinity.
